≈ marks a conversion by molar mass, not a printed value.
How the values were obtained:
S. marcescens TH-0447 = test: MIC, agar plate dilution method, S. marcescens TH-0447; assay type: cell-based, Serratia marcescens; conditions: for minimal inhibitory concentration (MIC): S. marcescens TH-0447, AMK-resistant; for MIC: Serratia marcescens, TH0447, S. marcescens TH-0447, AMK-resistant, read-out: minimal inhibitory concentration (MIC)
Protocol: (§1) As for the representative compounds of a new aminoglycoside antibiotic of the present invention described in Examples, the minimal inhibitory concentration (MIC, μg/mL) was measured for various assay strains of bacteria using an agar plate dilution method in accordance with the method described in the Japan Society of Chemotherapy.

E. faecium ATCC19434 = test: MIC, agar plate dilution method, E. faecium ATCC19434; assay type: cell-based, Enterococcus faecium; conditions: for minimal inhibitory concentration (MIC): E. faecium ATCC19434; for MIC: Enterococcus faecium, ATCC19434, E. faecium ATCC19434, read-out: minimal inhibitory concentration (MIC)
Protocol: as §1

P. aeruginosa PAO1 = test: MIC, agar plate dilution method, P. aeruginosa PAO1; assay type: cell-based, Pseudomonas aeruginosa; conditions: for minimal inhibitory concentration (MIC): P. aeruginosa PAO1, Sensitive bacterium; for MIC: Pseudomonas aeruginosa, PAO1, P. aeruginosa PAO1, Sensitive bacterium, read-out: minimal inhibitory concentration (MIC)
Protocol: as §1

S. aureus MF490 = test: MIC, agar plate dilution method, S. aureus MF490; assay type: cell-based, Staphylococcus aureus; conditions: for minimal inhibitory concentration (MIC): S. aureus MF490, MRSA; for MIC: Staphylococcus aureus, MRSA, read-out: minimal inhibitory concentration (MIC)
Protocol: as §1

[1] = test system: K. pneumoniae ATCC BAA-2146; test: MIC, agar plate dilution method, K. pneumoniae ATCC BAA-2146; assay type: cell-based, Klebsiella pneumoniae; conditions: for minimal inhibitory concentration (MIC): K. pneumoniae ATCC BAA-2146, NDM-producing strain; for MIC: Klebsiella pneumoniae, ATCCBAA2146, K. pneumoniae ATCC BAA-2146, NDM-producing strain, read-out: minimal inhibitory concentration (MIC)
Protocol: as §1

[2] = test system: A. baumannii ATCC BAA-1710; test: MIC, agar plate dilution method, A. baumannii ATCC BAA-1710; assay type: cell-based, Acinetobacter baumannii; conditions: for minimal inhibitory concentration (MIC): A. baumannii ATCC BAA-1710, MDRA; for MIC: Acinetobacter baumannii, ATCCBAA1710, A. baumannii ATCC BAA-1710, MDRA, read-out: minimal inhibitory concentration (MIC)
Protocol: as §1

S. aureus RN4220/pMS520 = test: MIC, agar plate dilution method, S. aureus RN4220/pMS520; assay type: cell-based, Staphylococcus aureus; conditions: for minimal inhibitory concentration (MIC): S. aureus RN4220/pMS520, MRSA; for MIC: Staphylococcus aureus, MRSA, read-out: minimal inhibitory concentration (MIC), S. aureus RN4220/pMS520, MRSA
Protocol: as §1

P. aeruginosa MSC17707 = test: MIC, agar plate dilution method, P. aeruginosa MSC17707; assay type: cell-based, Pseudomonas aeruginosa; conditions: for minimal inhibitory concentration (MIC): P. aeruginosa MSC17707, AMK-resistant; for MIC: Pseudomonas aeruginosa, MSC17707, P. aeruginosa MSC17707, AMK-resistant, read-out: minimal inhibitory concentration (MIC)
Protocol: as §1

S. marcescens GN6944 = test: MIC, agar plate dilution method, S. marcescens GN6944; assay type: cell-based, Serratia marcescens; conditions: S. marcescens GN6944, GM-resistant; for MIC: Serratia marcescens, read-out: minimal inhibitory concentration (MIC)
Protocol: as §1

[3] = test system: K. pneumoniae ATCC BAA-1705; test: MIC, agar plate dilution method, K. pneumoniae ATCC BAA-1705; assay type: cell-based, Klebsiella pneumoniae; conditions: for minimal inhibitory concentration (MIC): K. pneumoniae ATCC BAA-1705, KPC-producing strain; for MIC: Klebsiella pneumoniae, ATCCBAA1705, K. pneumoniae ATCC BAA-1705, KPC-producing strain, read-out: minimal inhibitory concentration (MIC)
Protocol: as §1

P. aeruginosa PAO1/GN315 = test: MIC, agar plate dilution method, P. aeruginosa PAO1/GN315; assay type: cell-based, Pseudomonas aeruginosa; conditions: for minimal inhibitory concentration (MIC): P. aeruginosa PAO1/GN315, AMK-resistant; for MIC: Pseudomonas aeruginosa, read-out: minimal inhibitory concentration (MIC), P. aeruginosa PAO1/GN315, AMK-resistant
Protocol: as §1

S. aureus RN4220 = test: MIC, agar plate dilution method, S. aureus RN4220; assay type: cell-based, Staphylococcus aureus; conditions: for minimal inhibitory concentration (MIC): S. aureus RN4220, Sensitive bacterium; for MIC: Staphylococcus aureus, RN4220, S. aureus RN4220, Sensitive bacterium, read-out: minimal inhibitory concentration (MIC)
Protocol: as §1

E. coli JM109/pMW218 = test: MIC, agar plate dilution method, E. coli JM109/pMW218; assay type: cell-based, Escherichia coli; conditions: for minimal inhibitory concentration (MIC): E. coli JM109/pMW218, Sensitive bacterium; for MIC: Escherichia coli, JM109/PMW218, E. coli JM109/pMW218, Sensitive bacterium, read-out: minimal inhibitory concentration (MIC)
Protocol: as §1

P. aeruginosa MSC01035 = test: MIC, agar plate dilution method, P. aeruginosa MSC01035; assay type: cell-based, Pseudomonas aeruginosa; conditions: P. aeruginosa MSC01035, ABK-resistant; for MIC: Pseudomonas aeruginosa, read-out: minimal inhibitory concentration (MIC)
Protocol: as §1

Row | SMILES | minimal inhibitory concentration (MIC) (S. marcescens TH-0447) [µg/mL] | minimal inhibitory concentration (MIC) (E. faecium ATCC19434) [µg/mL] | minimal inhibitory concentration (MIC) (P. aeruginosa PAO1) [µg/mL] | minimal inhibitory concentration (MIC) (S. aureus MF490) [µg/mL] | minimal inhibitory concentration (MIC) [1] [µg/mL] | minimal inhibitory concentration (MIC) [2] [µg/mL] | minimal inhibitory concentration (MIC) (S. aureus RN4220/pMS520) [µg/mL] | minimal inhibitory concentration (MIC) (P. aeruginosa MSC17707) [µg/mL] | minimal inhibitory concentration (MIC) (S. marcescens GN6944) [µg/mL] | minimal inhibitory concentration (MIC) [3] [µg/mL] | minimal inhibitory concentration (MIC) (P. aeruginosa PAO1/GN315) [µg/mL] | minimal inhibitory concentration (MIC) (S. aureus RN4220) [µg/mL] | minimal inhibitory concentration (MIC) (E. coli JM109/pMW218) [µg/mL] | minimal inhibitory concentration (MIC) (P. aeruginosa MSC01035) [µg/mL] | MIC (S. marcescens TH-0447) [µg/mL] | MIC (E. faecium ATCC19434) [µg/mL] | MIC (P. aeruginosa PAO1) [µg/mL] | MIC (S. aureus MF490) [µg/mL] | MIC [1] [µg/mL] | MIC [2] [µg/mL] | also measured
1 | CNC1C(OC2OC(CO)C(N)C(O)C2O)OC2CC(N)C(OC3C(N)CC(N)C(O)C3N)OC2C1O (stereo not shown) [Compound D2, 5-amino-5-deoxy-5-epiapramycin] | 8 (≈ 14.9 µM) | 32 (≈ 59.4 µM) | 4 (≈ 7.43 µM) | 8 (≈ 14.9 µM) | 2 (≈ 3.71 µM) | 8 (≈ 14.9 µM) | 4 (≈ 7.43 µM) | 8 (≈ 14.9 µM) | 4 (≈ 7.43 µM) | 2 (≈ 3.71 µM) | 4 (≈ 7.43 µM) | 4 (≈ 7.43 µM) | 2 (≈ 3.71 µM) | 4 (≈ 7.43 µM) |  |  |  |  |  |  | 
2 | CN[C@@H]1[C@@H](O[C@H]2O[C@H](CO)[C@@H](N)[C@H](O)[C@H]2O)O[C@H]2C[C@@H](N)[C@@H](O[C@H]3[C@H](N)[C@@H](O)[C@H](N)C[C@@H]3N)O[C@@H]2[C@@H]1O [Compound E3, 5-amino-5-deoxyapramycin] | 16 (≈ 29.7 µM) | 64 (≈ 119 µM) | 16 (≈ 29.7 µM) | 16 (≈ 29.7 µM) | 4 (≈ 7.43 µM) | 16 (≈ 29.7 µM) | 8 (≈ 14.9 µM) | 16 (≈ 29.7 µM) | 16 (≈ 29.7 µM) | 4 (≈ 7.43 µM) | 16 (≈ 29.7 µM) | 8 (≈ 14.9 µM) | 4 (≈ 7.43 µM) | 16 (≈ 29.7 µM) |  |  |  |  |  |  | 
3 | CN[C@@H]1[C@@H](O[C@H]2O[C@H](CO)[C@@H](N)[C@H](O)[C@H]2O)O[C@H]2C[C@@H](N)[C@@H](O[C@H]3[C@@H](F)[C@H](N)[C@H](N)C[C@@H]3N)O[C@@H]2[C@@H]1O [Compound F3, 6-amino-5,6-dideoxy-5,6-diepi-5-fluoroapramycin] | 16 (≈ 29.6 µM) | 64 (≈ 118 µM) | 16 (≈ 29.6 µM) | 32 (≈ 59.2 µM) | 4 (≈ 7.4 µM) | 16 (≈ 29.6 µM) | 8 (≈ 14.8 µM) | 16 (≈ 29.6 µM) | 16 (≈ 29.6 µM) | 4 (≈ 7.4 µM) | 16 (≈ 29.6 µM) | 8 (≈ 14.8 µM) | 8 (≈ 14.8 µM) | 32 (≈ 59.2 µM) |  |  |  |  |  |  | 
4 | CNC1C(O[C@H]2OC(CO)[C@@H](N)[C@H](O)C2N)O[C@H]2CC(N)[C@@H](O[C@@H]3C(N)C[C@@H](N)C(O)[C@H]3O)OC2C1O (stereo partly shown) [Compound G7, 2″-amino-2″-deoxy-2″,3″-diepiapramycin] |  |  |  |  |  |  |  |  |  |  |  |  |  |  | 8 (≈ 14.9 µM) | 16 (≈ 29.7 µM) | 8 (≈ 14.9 µM) | 16 (≈ 29.7 µM) | 4 (≈ 7.43 µM) | 8 (≈ 14.9 µM) | MIC (S. aureus RN4220/pMS520): 8 µg/mL (≈ 14.9 µM); MIC (P. aeruginosa MSC17707): 8 µg/mL (≈ 14.9 µM); MIC (S. marcescens GN6944): 8 µg/mL (≈ 14.9 µM); MIC [3]: 2 µg/mL (≈ 3.71 µM); MIC (P. aeruginosa PAO1/GN315): 8 µg/mL (≈ 14.9 µM); MIC (S. aureus RN4220): 4 µg/mL (≈ 7.43 µM); MIC (E. coli JM109/pMW218): 1 µg/mL (≈ 1.86 µM); MIC (P. aeruginosa MSC01035): 16 µg/mL (≈ 29.7 µM)
5 | CNC1C(O[C@H]2OC(CO)[C@@H](N)[C@H](N)C2O)O[C@H]2CC(N)[C@@H](O[C@@H]3C(N)C[C@@H](N)C(O)[C@H]3O)OC2C1O (stereo partly shown) [Compound G8, 3″-amino-3″-deoxyapramycin] |  |  |  |  |  |  |  |  |  |  |  |  |  |  | 16 (≈ 29.7 µM) | 32 (≈ 59.4 µM) | 8 (≈ 14.9 µM) | 32 (≈ 59.4 µM) | 4 (≈ 7.43 µM) | 16 (≈ 29.7 µM) | MIC (S. aureus RN4220/pMS520): 8 µg/mL (≈ 14.9 µM); MIC (P. aeruginosa MSC17707): 16 µg/mL (≈ 29.7 µM); MIC (S. marcescens GN6944): 16 µg/mL (≈ 29.7 µM); MIC [3]: 4 µg/mL (≈ 7.43 µM); MIC (P. aeruginosa PAO1/GN315): 16 µg/mL (≈ 29.7 µM); MIC (S. aureus RN4220): 8 µg/mL (≈ 14.9 µM); MIC (E. coli JM109/pMW218): 2 µg/mL (≈ 3.71 µM); MIC (P. aeruginosa MSC01035): 16 µg/mL (≈ 29.7 µM)

Source: US11135234B2, “Effective aminoglycoside antibiotic for multidrug-resistant bacteria” (MICROBIAL CHEMISTRY RESEARCH FOUNDATION, priority 2015, dated 2021)
